Where two headings read alike, the source gives them in different places.
Experiments:
DCAF15 = DCAF15 (Homo sapiens, UniProt Q66K64); experiment: Binary interaction between compounds and DCAF15, HTRF competition assay; assay type: binding
Protocol: DCAF15 interactions with test compounds were monitored using HTRF competition assays (Cisbio, Bedford, MA). […] These two solutions were mixed and incubated for 15 min at room temperature. 9.8 ul of the tracer solution and 10 ul of the DCAF15/mAb Anti-6His-Eu cryptate Gold mixture were added sequentially to each well in the assay plate. Reaction mixtures with no DCAF15 added were included as […] controls. […] Binding was estimated based on ratiometric analysis and titration curves were generated in GraphPad Prism (7.00, GraphPad, La Jolla, CA).

[1] = target: T1, DCAF15-RBM39 ternary complex (Homo sapiens, UniProt Q14498+Q66K64); experiment: Compound-induced DCAF15-RBM39 ternary complex formation, AlphaLISA; assay type: biochemical
T1 construct: (RRM2)
T1 sequence (Q66K64 whole entry): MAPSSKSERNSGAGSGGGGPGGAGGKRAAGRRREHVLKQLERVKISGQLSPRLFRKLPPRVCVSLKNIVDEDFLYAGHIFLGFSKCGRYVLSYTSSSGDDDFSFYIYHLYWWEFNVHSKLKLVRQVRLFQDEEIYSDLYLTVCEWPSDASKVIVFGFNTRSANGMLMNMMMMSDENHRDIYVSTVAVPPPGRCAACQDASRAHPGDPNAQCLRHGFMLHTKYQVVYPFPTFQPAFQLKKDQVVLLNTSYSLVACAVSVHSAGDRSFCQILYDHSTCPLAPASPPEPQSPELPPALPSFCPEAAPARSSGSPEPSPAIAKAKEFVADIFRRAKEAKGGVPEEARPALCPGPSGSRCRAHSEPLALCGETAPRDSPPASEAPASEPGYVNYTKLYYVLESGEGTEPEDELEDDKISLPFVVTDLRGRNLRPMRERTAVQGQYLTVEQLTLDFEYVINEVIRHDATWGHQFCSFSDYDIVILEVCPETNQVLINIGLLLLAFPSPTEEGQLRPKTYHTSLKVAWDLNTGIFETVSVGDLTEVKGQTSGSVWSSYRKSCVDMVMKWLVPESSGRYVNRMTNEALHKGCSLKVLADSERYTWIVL
T1 sequence (Q14498 250-328 limits assumed): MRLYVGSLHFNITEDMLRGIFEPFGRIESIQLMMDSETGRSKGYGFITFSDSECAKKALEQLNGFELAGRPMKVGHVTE
T1 sequence (Q16531 whole entry partner): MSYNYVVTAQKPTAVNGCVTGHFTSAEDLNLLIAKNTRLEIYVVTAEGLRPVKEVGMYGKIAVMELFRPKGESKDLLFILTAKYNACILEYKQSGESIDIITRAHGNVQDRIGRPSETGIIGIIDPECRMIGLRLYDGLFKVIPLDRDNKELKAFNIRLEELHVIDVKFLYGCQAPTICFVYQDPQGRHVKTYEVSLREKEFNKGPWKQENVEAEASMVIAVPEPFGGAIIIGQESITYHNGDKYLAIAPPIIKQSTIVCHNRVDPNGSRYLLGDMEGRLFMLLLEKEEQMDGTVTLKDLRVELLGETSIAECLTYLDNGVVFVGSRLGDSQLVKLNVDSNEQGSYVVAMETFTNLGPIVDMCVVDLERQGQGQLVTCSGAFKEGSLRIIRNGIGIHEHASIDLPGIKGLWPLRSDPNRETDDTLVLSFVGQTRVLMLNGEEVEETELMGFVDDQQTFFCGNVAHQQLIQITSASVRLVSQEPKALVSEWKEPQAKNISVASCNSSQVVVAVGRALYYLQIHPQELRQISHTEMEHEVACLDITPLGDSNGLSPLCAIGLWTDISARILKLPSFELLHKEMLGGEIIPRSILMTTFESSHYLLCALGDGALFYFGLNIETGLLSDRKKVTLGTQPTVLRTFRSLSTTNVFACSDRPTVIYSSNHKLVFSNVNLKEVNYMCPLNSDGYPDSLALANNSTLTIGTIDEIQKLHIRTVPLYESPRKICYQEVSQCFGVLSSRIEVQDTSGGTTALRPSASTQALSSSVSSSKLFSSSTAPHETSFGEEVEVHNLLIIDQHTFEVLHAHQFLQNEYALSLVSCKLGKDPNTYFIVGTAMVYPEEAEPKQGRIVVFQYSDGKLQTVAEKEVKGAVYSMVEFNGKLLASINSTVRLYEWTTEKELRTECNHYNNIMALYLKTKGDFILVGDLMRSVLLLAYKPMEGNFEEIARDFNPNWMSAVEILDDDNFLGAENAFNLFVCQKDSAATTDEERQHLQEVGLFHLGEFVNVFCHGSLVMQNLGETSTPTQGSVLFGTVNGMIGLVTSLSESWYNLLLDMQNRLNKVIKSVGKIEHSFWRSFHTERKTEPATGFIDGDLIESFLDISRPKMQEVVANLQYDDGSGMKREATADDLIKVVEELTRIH
Protocol: Compound-induced DCAF15-RBM39 ternary complex formation was monitored using AlphaLISA® assays (Perkin Elmer, Waltham, MA). […] 9.8 ul of this protein mixture was then mixed with the compounds in the assay plate and incubated for one hour at room temperature. Reaction mixtures with no compounds added were included as negative controls, while a His-tagged and biotinylated GST protein was included to track general assay performance. […] The beads were then added to the assay plate sequentially with incubation at room temperature for 1-2 hours after each addition.

[2] = HTRF competition with Alexa Fluor 647 tracer, His-tagged DCAF15 complex, read-out: DCAF15 IC50
[3] = AlphaLISA, His-tagged DCAF15 complex and biotin-carrying RBM39, read-out: Ternary-RBM39 (RRM2) EC50

Sequence of DCAF15 (Q66K64 whole entry): as the sequence (Q66K64 whole entry) above
Sequence of DCAF15 (Q16531 whole entry partner): as the sequence (Q16531 whole entry partner) above

Compound	IC50 (DCAF15; [2])	EC50 [1, 3]	IC50 (DCAF15)	EC50 [1]
O=S(=O)(Nc1ccc(Cl)c2c(Cl)c[nH]c12)c1ccc(S(=O)(=O)N2CCc3[nH]c(-c4ccccc4)nc3C2)cc1 [Compound 54, N-(3,4-dichloro-1H-indol-7-yl)-4-((2-phenyl-1,4,6,7-tetrahydro-5H-imidazo[4,5-c]pyridin-5-yl)sulfonyl) benzene sulfonamide]	< 100 µM	< 5 µM		
CC(C)(C)OC(=O)N1CCC2(CC1)CN(S(=O)(=O)c1ccc(S(=O)(=O)Nc3ccc(Cl)c4c(Cl)c[nH]c34)cc1)CCO2 [Compound 55, tert-butyl 4-((4-(N-(3,4-dichloro-1H-indol-7-yl)sulfamoyl)phenyl)sulfonyl)-1-oxa-4,9-diazaspiro[5.5] undecane-9-carboxylate]	< 20 µM	< 5 µM		
O=S(=O)(Nc1ccc(Cl)c2c(Cl)c[nH]c12)c1ccc(S(=O)(=O)C2CCNCC2)cc1 [Compound 57, N-(3,4-dichloro-1H-indol-7-yl)-4-(piperidin-4-ylsulfonyl)benzene sulfonamide]	< 5 µM	< 1 µM		
CN1CCC(S(=O)(=O)c2ccc(S(=O)(=O)Nc3ccc(Cl)c4c(Cl)c[nH]c34)cc2)CC1 [Compound 58, N-(3,4-dichloro-1H-indol-7-yl)-4-((1-methylpiperidin-4-yl)sulfonyl)benzene sulfonamide]	< 5 µM	< 1 µM		
O=S(=O)(Nc1ccc(Cl)c2c(Cl)c[nH]c12)c1ccc(C2(N3CCNCC3)CC2)cc1 [Compound 59, N-(3,4-dichloro-1H-indol-7-yl)-4-(1-(piperazin-1-yl)cyclopropyl) benzenesulfonamide]	< 5 µM	< 1 µM		
O=S(=O)(Nc1ccc(Cl)c2c(Cl)c[nH]c12)c1ccc(C2(N3CCNCC3)COC2)cc1 [Compound 60, N-(3,4-dichloro-1H-indol-7-yl)-4-(3-(piperazin-1-yl)oxetan-3-yl)benzenesulfonamide]	< 5 µM	< 1 µM		
Cn1cc(-c2ccc(S(=O)(=O)Nc3ccc(Cl)c4c(Cl)c[nH]c34)cc2)cn1 [Compound 61, N-(3,4-dichloro-1H-indol-7-yl)-4-(1-methyl-1H-pyrazol-4-yl)benzenesulfonamide]	< 5 µM	< 5 µM		
CCCN(c1ccc(S(=O)(=O)Nc2ccc(Cl)c3c(Cl)c[nH]c23)cc1)S(=O)(=O)C1CCNCC1 [Compound 63, N-(4-(N-(3,4-dichloro-1H-indol-7-yl)sulfamoyl)phenyl)-N-propylpiperidine-4-sulfonamide]	< 5 µM	< 1 µM		
CN1CCC(S(=O)(=O)Nc2ccc(S(=O)(=O)Nc3ccc(Cl)c4c(Cl)c[nH]c34)cc2)CC1 [Compound 64, N-(4-(N-(3,4-dichloro-1H-indol-7-yl)sulfamoyl)phenyl)-1-methylpiperidine-4-sulfonamide]	< 100 µM	< 5 µM		
CCCN(c1ccc(S(=O)(=O)Nc2ccc(Cl)c3c(Cl)c[nH]c23)cc1)S(=O)(=O)N1CCN(C)CC1 [Compound 66, N-(4-(N-(3,4-dichloro-1H-indol-7-yl)sulfamoyl)phenyl)-4-methyl-N-propylpiperazine-1-sulfonamide]	< 5 µM	< 1 µM		
CCCN(c1ccc(S(=O)(=O)Nc2ccc(Cl)c3c(Cl)c[nH]c23)cc1)S(=O)(=O)N1CCNCC1 [Compound 67, N-(4-(N-(3,4-dichloro-1H-indol-7-yl)sulfamoyl)phenyl)-N-propylpiperazine-1-sulfonamide]	< 5 µM	< 1 µM		
CCN=S(=O)(c1ccc(S(=O)(=O)Nc2ccc(Cl)c3c(Cl)c[nH]c23)cc1)C1CCNCC1 (stereo not drawn) [Compound 68, N-(3,4-dichloro-1H-indol-7-yl)-4-(N-ethylpiperidine-4-sulfonimidoyl)benzenesulfonamide]	< 5 µM	< 1 µM		
CCN=S(=O)(c1ccc(S(=O)(=O)Nc2ccc(Cl)c3c(Cl)c[nH]c23)cc1)N1CCNCC1 (stereo not drawn) [Compound 69, N-(3,4-dichloro-1H-indol-7-yl)-4-(N-ethylpiperazine-1-sulfonimidoyl)benzenesulfonamide]	< 100 µM	< 1 µM		
O=S(=O)(Nc1ccc(Cl)c2c(Cl)c[nH]c12)c1ccc(C(F)(F)C2CCNCC2)cc1 [Compound 70, N-(3,4-dichloro-1H-indol-7-yl)-4-(difluoro(piperidin-4-yl)methyl)benzene sulfonamide]	< 5 µM	< 1 µM		
CCCN(C(C)=O)c1ccc(S(=O)(=O)Nc2ccc(Cl)c3c(Cl)c[nH]c23)cc1 [Compound 71, N-(4-(N-(3,4-dichloro-1H-indol-7-yl)sulfamoyl)phenyl)-N-propylacetamide]	< 5 µM	< 1 µM		
O=S(=O)(F)c1ccc(S(=O)(=O)Nc2ccc(Cl)c3c(Cl)c[nH]c23)cc1 [Compound 72, 4-(N-(3,4-dichloro-1H-indol-7-yl)sulfamoyl)benzenesulfonyl fluoride]			< 20 µM	< 1 µM
O=S(=O)(Nc1ccc(Cl)c2c(Cl)c[nH]c12)c1cccc(Br)c1 [Compound 76, 3-bromo-N-(3,4-dichloro-1H-indol-7-yl)benzenesulfonamide]	< 20 µM	< 5 µM		
Cc1ccc(NS(=O)(=O)c2ccc(S(=O)(=O)N(C)C3CCNCC3)cc2)c2[nH]cc(C#N)c12 [Compound 78, N^1-(3-cyano-4-methyl-1H-indol-7-yl)-N^4-methyl-N^4-(piperidin-4-yl) benzene-1,4-disulfonamide]	< 5 µM	< 1 µM		
Cc1ccc(NS(=O)(=O)c2ccc(S(=O)(=O)N3CCC(N(C)C)C3)cc2)c2[nH]cc(C#N)c12 (stereo not drawn) [Compound 80, N-(3-cyano-4-methyl-1H-indol-7-yl)-4-((3-(dimethylamino)pyrrolidine-1-yl)sulfonyl)benzenesulfonamide]	< 20 µM	< 1 µM		
Cc1ccc(NS(=O)(=O)c2ccc(S(=O)(=O)N3CCC(N)CC3)cc2)c2[nH]cc(C#N)c12 [Compound 81, 4-((4-aminopiperidin-1-yl)sulfonyl)-N-(3-cyano-4-methyl-1H-indol-7-yl) benzenesulfonamide]	< 5 µM	< 1 µM		
Cc1ccc(NS(=O)(=O)c2ccc(S(=O)(=O)N3CCN(C4COC4)CC3)cc2)c2[nH]cc(C#N)c12 [Compound 86, N-(3-cyano-4-methyl-1H-indol-7-yl)-4-((4-(oxetan-3-yl)piperazin-1-yl)sulfonyl)benzenesulfonamide]	< 20 µM	< 1 µM		
O=S(=O)(Nc1ccc(Cl)c2cc[nH]c12)c1ccc(S(=O)(=O)N2CCNCC2)cc1 [Compound 87, N-(4-chloro-1H-indol-7-yl)-4-(piperazin-1-ylsulfonyl)benzenesulfonamide]	< 20 µM	< 5 µM		
N#Cc1ccc(NS(=O)(=O)c2ccc(S(=O)(=O)N3CCNCC3)cc2)c2[nH]cc(Cl)c12 [Compound 88, N-(3-chloro-4-cyano-1H-indol-7-yl)-4-(piperazin-1-ylsulfonyl)benzenesulfonamide]	< 20 µM	< 1 µM		
Cc1ccc(NS(=O)(=O)c2ccc(S(=O)(=O)N3CCN4CCCC4C3)cc2)c2[nH]cc(C#N)c12 (stereo not drawn) [Compound 91, N-(3-cyano-4-methyl-1H-indol-7-yl)-4-((hexahydropyrrolo[1,2-a]pyrazin-2(1H)-yl)sulfonyl)benzenesulfonamide]	< 100 µM	< 1 µM		
Cc1ccc(NS(=O)(=O)c2ccc(S(=O)(=O)N3CC4CNCC4C3)cc2)c2[nH]cc(C#N)c12 (stereo not drawn) [Compound 92, N-(3-cyano-4-methyl-1H-indol-7-yl)-4-((hexahydropyrrolo[3,4-c]pyrrol-2(1H)-yl)sulfonyl)benzenesulfonamide]	< 20 µM	< 1 µM		
Cc1ccc(NS(=O)(=O)c2ccc(S(=O)(=O)N3C[C@H]4C[C@@H](C3)N4)cc2)c2[nH]cc(C#N)c12 [Compound 94, 4-(((1R,5S)-3,6-diazabicyclo[3.1.1]heptan-3-yl)sulfonyl)-N-(3-cyano-4-methyl-1H-indol-7-yl)benzenesulfonamide]	< 20 µM	< 1 µM		
N#Cc1cccc(S(=O)(=O)Nc2ccc(I)c3c(Cl)c[nH]c23)c1 [Compound 102, N-(3-chloro-4-iodo-1H-indol-7-yl)-3-cyanobenzenesulfonamide]	< 100 µM	< 5 µM		
O=C1CCC(NS(=O)(=O)c2ccc(S(=O)(=O)Nc3ccc(Cl)c4c(Cl)c[nH]c34)c(F)c2)CN1 (stereo not drawn) [compound 105]	< 20 µM	< 20 µM		
CC1CN(S(=O)(=O)c2ccc(S(=O)(=O)Nc3ccc(Cl)c4c(Cl)c[nH]c34)cc2)CCN1 (stereo not drawn) [compound 109]	< 5 µM	< 1 µM		
CCCN(C(=O)CN)c1ccc(S(=O)(=O)Nc2ccc(Cl)c3c(Cl)c[nH]c23)cc1 [compound 131]	< 5 µM	< 1 µM		

— patent publication US20240190821A1, “SULFONAMIDE SUBSTITUTED N-(1H-INDOL-7-YL)BENZENESULFONAMIDES AND USES THEREOF” (Triana Biomedicines, Inc., priority 2021, published 2024)
